Measurements reported in patent publication US10292391B2, “Pesticidally active 1,2,4-triazole derivatives with sulphur containing substituents” (Syngenta Participations AG, priority 2015, dated 2019).

Columns and labels:
Type in all cases: in vivo
[1] = test system: Thrips tabaci (Onion Thrips); test: Activity against Thrips tabaci, sprayed sunflower leaf discs; conditions: foliar, 144 h, application rate of 200 ppm, thrips population of mixed ages, 6 days after infestation
Method: Sunflower leaf discs were placed on agar in 24-well microtiter plates and sprayed with aqueous test solutions prepared from 10,000 ppm DMSO stock solutions. After drying the leaf discs were infested with a thrips population of mixed ages. The samples were assessed for mortality 6 days after infestation.

[2] = test system: Spodoptera littoralis (Egyptian Cotton Leaf Worm); test: Activity against Spodoptera littoralis, systemic via lettuce grown on treated agar; conditions: 144 h, test rate of 12.5 ppm, root uptake by lettuce, 6 days after infestation, read-out: effect in at least one of the three categories (mortality, anti-feedancy, or growth inhibition)
Excerpt: Test compounds were applied by pipette from 10,000 ppm DMSO stock solutions into 24-well plates and mixed with agar. Lettuce seeds were placed on the agar and the multi well plate was closed by another plate which contains also agar. After 7 days the roots have absorbed the compound and the lettuce has grown into the lid plate. The lettuce leafs were now cut off into the lid plate. Spodoptera eggs were pipetted through a plastic stencil on a humid gel blotting paper and the plate closed with it. The samples were assessed for mortality, anti-feedant effect and growth inhibition in comparison to untreated samples 6 days after infestation.

[3] = test system: Plutella xylostella (Diamond Back Moth); test: Activity against Plutella xylostella, treated artificial diet; conditions: 120 h, application rate of 200 ppm, L2 larvae, 5 days after infestation, read-out: effect in at least one of the two categories (mortality or growth inhibition)
Method: 24-well microtiter plates with artificial diet were treated with aqueous test solutions prepared from 10,000 ppm DMSO stock solutions by pipetting. After drying, the plates were infested with L2 larvae (10 to 15 per well). The samples were assessed for mortality and growth inhibition in comparison to untreated samples 5 days after infestation.

[4] = test system: Spodoptera littoralis (Egyptian Cotton Leaf Worm); test: Activity against Spodoptera littoralis, sprayed cotton leaf discs; conditions: foliar, 72 h, application rate of 200 ppm, L1 larvae, 3 days after infestation, read-out: control (at least one of mortality, anti-feedant effect, and growth inhibition)
Method: Cotton leaf discs were placed on agar in 24-well microtiter plates and sprayed with aqueous test solutions prepared from 10,000 ppm DMSO stock solutions. After drying the leaf discs were infested with five L1 larvae. The samples were assessed for mortality, anti-feedant effect, and growth inhibition in comparison to untreated samples 3 days after infestation. Control of Spodoptera littoralis by a test sample is when at least one of mortality, anti-feedant effect, and growth inhibition is higher than the untreated sample.

[5] = test system: Myzus persicae (Green Peach Aphid); test: Activity against Myzus persicae, sprayed sunflower leaf discs; conditions: foliar, 144 h, application rate of 200 ppm, aphid population of mixed ages, 6 days after infestation
Method: Sunflower leaf discs were placed on agar in a 24-well microtiter plate and sprayed with aqueous test solutions prepared from 10,000 ppm DMSO stock solutions. After drying, the leaf discs were infested with an aphid population of mixed ages. The samples were assessed for mortality 6 days after infestation.

[6] = test system: Diabrotica Balteata (Corn Root Worm); test: Activity against Diabrotica balteata, sprayed maize sprouts; conditions: 96 h, application rate of 200 ppm, L2 larvae, 4 days after infestation, read-out: effect in at least one of the two categories (mortality or growth inhibition)
Method: Maize sprouts, placed on an agar layer in 24-well microtiter plates were treated with aqueous test solutions prepared from 10,000 ppm DMSO stock solutions by spraying. After drying, the plates were infested with L2 larvae (6 to 10 per well). The samples were assessed for mortality and growth inhibition in comparison to untreated samples 4 days after infestation.

[7] = test system: Frankliniella occidentalis (Western Flower Thrips); test: Activity against Frankliniella occidentalis, sprayed sunflower leaf discs; conditions: foliar, 168 h, application rate of 200 ppm, population of mixed ages, 7 days after infestation
Method: Sunflower leaf discs were placed on agar in 24-well microtiter plates and sprayed with aqueous test solutions prepared from 10,000 DMSO stock solutions. After drying the leaf discs were infested with a Frankliniella population of mixed ages. The samples were assessed for mortality 7 days after infestation.

[8] = test system: Euschistus heros(Neotropical Brown Stink Bug); test: Activity against Euschistus heros, sprayed soybean leaf; conditions: 120 h, application rate of 200 ppm, N-2 nymphs, 5 days after infestation, read-out: effect in at least one of the two categories (mortality or growth inhibition)
Method: Soybean leaf on agar in 24-well microtiter plates were sprayed with aqueous test solutions prepared from 10,000 ppm DMSO stock solutions. After drying the leaf were infested with N-2 nymphs. The samples were assessed for mortality and growth inhibition in comparison to untreated samples 5 days after infestation.

[9] = test system: Myzus persicae (Green Peach Aphid); test: Activity against Myzus persicae, systemic via roots of pea seedlings; conditions: 144 h, test rate of 24 ppm, roots of pea seedlings in test solution, 6 days
Method: Roots of pea seedlings infested with an aphid population of mixed ages were placed directly in the aqueous test solutions prepared from 10,000 DMSO stock solutions. The samples were assessed for mortality 6 days after placing seedlings in test solutions.

CCS(=O)(=O)c1cc(-n2cc(Cl)cn2)cnc1-c1nnc(-c2cc(C(F)(F)F)ccn2)n1C [Compound P7]
≥ 80%: mortality at 200 ppm [1] | percent control (mortality, anti-feedancy or growth inhibition) at 12.5 ppm [2] | percent effect (mortality or growth inhibition) at 200 ppm [3] | mortality at 200 ppm [4] | mortality at 200 ppm [5] | percent effect (mortality or growth inhibition) at 200 ppm [6] | mortality at 200 ppm [7] | percent effect (mortality or growth inhibition) at 200 ppm [8]

CCS(=O)(=O)c1cc(-c2ncccn2)cnc1-c1nnc(-c2cc(C(F)(F)F)ccn2)n1C [Compound P9, 2-[5-ethylsulfonyl-6-[4-methyl-5-[4-(trifluoromethyl)-2-pyridyl]-1,2,4-triazol-3-yl]-3-pyridyl]pyrimidine]
≥ 80%: percent control (mortality, anti-feedancy or growth inhibition) at 12.5 ppm [2] | percent effect (mortality or growth inhibition) at 200 ppm [3] | mortality at 200 ppm [4] | mortality at 200 ppm [5] | mortality at 24 ppm [9] | percent effect (mortality or growth inhibition) at 200 ppm [6] | mortality at 200 ppm [7] | percent effect (mortality or growth inhibition) at 200 ppm [8]

C=Cc1cnc(-c2nnc(-c3cc(C(F)(F)F)ccn3)n2C)c(S(=O)(=O)CC)c1 [Compound P12, 3-ethylsulfonyl-2-[4-methyl-5-[4-(trifluoromethyl)-2-pyridyl]-1,2,4-triazol-3-yl]-5-vinyl-pyridine]
≥ 80%: mortality at 200 ppm [5] | mortality at 24 ppm [9]

C=C(OCC)c1cnc(-c2nnc(-c3cc(C(F)(F)F)ccn3)n2C)c(S(=O)(=O)CC)c1 [Compound P13]
≥ 80%: mortality at 200 ppm [1] | percent effect (mortality or growth inhibition) at 200 ppm [3] | mortality at 200 ppm [4] | mortality at 200 ppm [5] | percent effect (mortality or growth inhibition) at 200 ppm [6] | mortality at 200 ppm [7]

CCS(=O)(=O)c1cc(-n2cnc(C#N)c2)cnc1-c1nnc(-c2cc(C(F)(F)F)ccn2)n1C [Compound P15]
≥ 80%: mortality at 200 ppm [1] | mortality at 24 ppm [9]

CCS(=O)(=O)c1cc(-c2ccc(C#N)cn2)cnc1-c1nnc(-c2cc(C(F)(F)F)ccn2)n1C [Compound P22]
≥ 80%: mortality at 200 ppm [1] | percent control (mortality, anti-feedancy or growth inhibition) at 12.5 ppm [2] | percent effect (mortality or growth inhibition) at 200 ppm [3] | mortality at 200 ppm [4] | mortality at 200 ppm [5] | percent effect (mortality or growth inhibition) at 200 ppm [6] | mortality at 200 ppm [7] | percent effect (mortality or growth inhibition) at 200 ppm [8]

CCS(=O)(=O)c1cc(-c2cc(C#N)ccn2)cnc1-c1nnc(-c2cc(C(F)(F)F)ccn2)n1C [Compound P23]
≥ 80%: mortality at 200 ppm [1] | percent control (mortality, anti-feedancy or growth inhibition) at 12.5 ppm [2] | percent effect (mortality or growth inhibition) at 200 ppm [3] | mortality at 200 ppm [4] | mortality at 200 ppm [5] | mortality at 24 ppm [9] | percent effect (mortality or growth inhibition) at 200 ppm [6] | mortality at 200 ppm [7] | percent effect (mortality or growth inhibition) at 200 ppm [8]

CCS(=O)(=O)c1cc(-c2ccc(Cl)cn2)cnc1-c1nnc(-c2cc(C(F)(F)F)ccn2)n1C [Compound P25]
≥ 80%: mortality at 200 ppm [1] | percent control (mortality, anti-feedancy or growth inhibition) at 12.5 ppm [2] | percent effect (mortality or growth inhibition) at 200 ppm [3] | mortality at 200 ppm [4] | percent effect (mortality or growth inhibition) at 200 ppm [6] | percent effect (mortality or growth inhibition) at 200 ppm [8]

CCS(=O)(=O)c1cc(-c2cc(Cl)ccn2)cnc1-c1nnc(-c2cc(C(F)(F)F)ccn2)n1C [Compound P26]
≥ 80%: mortality at 200 ppm [1] | percent control (mortality, anti-feedancy or growth inhibition) at 12.5 ppm [2] | percent effect (mortality or growth inhibition) at 200 ppm [3] | mortality at 200 ppm [4] | mortality at 200 ppm [5] | percent effect (mortality or growth inhibition) at 200 ppm [6] | mortality at 200 ppm [7] | percent effect (mortality or growth inhibition) at 200 ppm [8]

CCS(=O)(=O)c1cc(C2CC2)cnc1-c1nnc(-c2cc(C(F)(F)F)ccn2)n1C [Compound P29, 5-cyclopropyl-3-ethylsulfonyl-2-[4-methyl-5-[4-(trifluoromethyl)-2-pyridyl]-1,2,4-triazol-3-yl]pyridine]
≥ 80%: mortality at 200 ppm [1] | percent control (mortality, anti-feedancy or growth inhibition) at 12.5 ppm [2] | percent effect (mortality or growth inhibition) at 200 ppm [3] | mortality at 200 ppm [4] | mortality at 200 ppm [5] | mortality at 24 ppm [9] | percent effect (mortality or growth inhibition) at 200 ppm [6]

CCS(=O)(=O)c1cc([S+]([O-])C(F)(F)F)cnc1-c1nnc(-c2cc(C(F)(F)F)ccn2)n1C (stereo not drawn) [Compound P36, 3-ethylsulfonyl-2-[4-methyl-5-[4-(trifluoromethyl)-2-pyridyl]-1,2,4-triazol-3-yl]-5-(trifluoromethylsulfinyl)pyridine]
≥ 80%: mortality at 24 ppm [9] | percent effect (mortality or growth inhibition) at 200 ppm [6]

CCS(=O)(=O)c1ccc(-c2ncccn2)nc1-c1nnc(-c2cc(C(F)(F)F)ccn2)n1C [Compound P39]
≥ 80%: percent control (mortality, anti-feedancy or growth inhibition) at 12.5 ppm [2] | percent effect (mortality or growth inhibition) at 200 ppm [3] | mortality at 200 ppm [4] | mortality at 200 ppm [5] | mortality at 24 ppm [9] | percent effect (mortality or growth inhibition) at 200 ppm [6] | percent effect (mortality or growth inhibition) at 200 ppm [8]

CCS(=O)(=O)c1cc(-n2cncn2)cnc1-c1nnc(-c2cc(C(F)(F)F)ncn2)n1C [Compound P46]
≥ 80%: mortality at 200 ppm [5] | mortality at 24 ppm [9] | percent effect (mortality or growth inhibition) at 200 ppm [6] | mortality at 200 ppm [7]

CCS(=O)(=O)c1ccc(-n2cncn2)nc1-c1nnc(-c2cc(C(F)(F)F)ncn2)n1C [Compound P47]
≥ 80%: mortality at 200 ppm [5] | mortality at 24 ppm [9] | percent effect (mortality or growth inhibition) at 200 ppm [6] | percent effect (mortality or growth inhibition) at 200 ppm [8]

CCS(=O)(=O)c1ccc(-c2ncccn2)nc1-c1nnc(-c2cc(C(F)(F)F)ncn2)n1C [Compound P54]
≥ 80%: percent effect (mortality or growth inhibition) at 200 ppm [3] | mortality at 200 ppm [5] | mortality at 24 ppm [9] | percent effect (mortality or growth inhibition) at 200 ppm [6] | mortality at 200 ppm [7] | percent effect (mortality or growth inhibition) at 200 ppm [8]
